Structures are written as SMILES. Read-outs that look alike come from different tables or passages of the source.

The source of these data is US6541523B2, “Methods for treating or preventing fibromyalgia using very low doses of cyclobenzaprine” (Vela Pharmaceuticals, Inc., priority 1999, dated 2003).

Series [1] has as its system patients with fibromyalgia. An excerpt: Quantification of improvement may be measured according to methods known in the art. For example, pain may be measured using tender point count, the McGill Pain Questionnaire, the Arthritis Impact Measurement Scales (AIMS), the Sickness Impact Profile (SIP), the Health Assessment Questionnaire (HAQ) functional disability index, the Symptom Checklist-90R, and dolorimeter scores. […] (Alarcon, Graciela, et al., “Advances in the Treatment of Fibromyalgia: Current Status and Future Directions”, Am. J. Med. Sciences, 315:397-404 (1998).)
(§1) The quality of sleep (“sleep disturbance”) may be determined, inter alia, by asking the patient if he/she awakened tired or nonrefreshed “never,” “seldom,” “often or usually,” or “always.” Replies of “often or usually” or “always” may be scored as positive and other replies as negative. Patients reports of well-being or relief from “zombie” or “spacey” feelings, feelings of being “run down,” and having difficultly concentrating during waking hours are indications of better quality of sleep or deep, refreshing sleep.
They were on a dose of ⅓ tablet of cyclobenzaprine (3 33 mg).
patient four, a person homemaker, presented with complaints of chest pain previously attributed to their known history of mitral valve prolapse. They also complained of a several year history of fatigue.
patient two, a active grandparent, presented with the new onset of cervical and lumbar muscular pains associated with poor quality sleep and fatigue. The patient was diagnosed with fibromyalgia.
patient seven, a person homemaker, presented with complaints of diffuse pain and fatigue.
patient three, a person homemaker, presented with complaints of right trapezius spasm. They had recently been started on paroxetine, 20 mg p.o. qd for mild depression, and had also noted disrupted sleep quality with frequent awakening with resultant fatigue and daytime somnolence. […] They were diagnosed with fibromyalgia and was begun on cyclobenzaprine 10 mg p.o. qHS for the diagnosis of fibromyalgia and possible sleep disturbance due to the SSRI paroxetine.
patient one, a person homemaker, had recently given birth to a healthy baby, and in during the later stages of pregnancy and in the post-partem period noted fatigue and exhaustion associated with multiple areas of muscular soreness.
patient six, a executive, presented with complaints of “burning pains” in their muscles, associated with sleep disturbance with frequent awakening and resultant fatigue.
patient five, a executive, had been tried on multiple medications by a “fibromyalgia specialist,” who according to the patient had performed over $2,000 in blood tests, diagnosing “yeast infection in the blood” and multiple allergies.

The test system of series [2] is patients with sleep disturbance. The conditions noted are these: single patient report.
Description: as §1

The test system of series [3] is cyclobenzaprine-treated patients. The conditions noted are these: cited from earlier work.
Series [4] deals with fibromyalgia patients. To be noted: twenty to forty mgs per day; twelve fibromyalgia patients; cited from earlier work.
Series [5] concerns fibromyalgia patients. The conditions noted are these: cited from earlier work.
Series [6] has as its system fibromyalgia patients. The conditions noted are these: five mgs per day; some fibromyalgia patients; anecdotal; cited from earlier work.
[7] abbreviates: ⅓ tablet (3 33 mg), single patient report.

Regarding `CN(C)CCC=C1c2ccccc2C=Cc2ccccc21` [cyclobenzaprine, 3-(5H-Dibenzo[a,d]cyclohepten-5-ylidene)-N,N-dimethyl-1-propanamine], the Symptom response entry in series [1] (10 mg p.o. qHS, single patient report) is “helping their muscular pains”; in series [1] (½ tablet (5 mg) p.o. qHS, single patient report), “symptoms abated”; in series [1] (setting [7]) it was “alleviated their symptoms”. Moreover, the “Course after stopping cyclobenzaprine” value in series [1] (discontinuation of ¼ tablet (2.5 mg), single patient report) is “immediate return of all of their previous symptoms”. In series [1] (less than 5 mg/day qHS, applicant's summary for many patients), the “Effect on sleep disturbance, fatigue and diffuse pain” value is reported as “surprisingly effective at treating the sleep disturbance”. In addition, the Side effects result in series [1] (setting [7]) was “no adverse effects”; in series [2] (½ tablet (5 mg)), ““grogginess” during the day”. Besides, in series [2] (¼ to ½ tablet (2.5-5 mg)), the “Sleep and energy response” value was “improved sleep and increased energy, with resolution of their daytime somnolence”. Moreover, the “Less common side effects” value in series [3] (cyclobenzaprine treatment) is “nausea, tiredness, constipation, blurred vision, nervousness, confusion, abdominal pain and discomfort”. In addition, the Organ toxicity result in series [3] (recommended doses) is “No indications of organ toxicity”. Further, the “Toxic effects on overdose” value in series [3] (three individuals who ingested between 260 to 900 mg) is reported as “Toxic effects were reported”. Moreover, in the series on fibromyalgia patients [4], the “Alpha non-REM EEG sleep anomaly and mood ratings” value is recorded as “did not favorably change”. The “Pain (tender point count and dolorimetry)” value with fibromyalgia patients [4] was “did not experience decreased pain”. Besides, the “Difference in efficacy between regimens” value with fibromyalgia patients [5] (10 mg/day vs 30 mg/day) is on record as “no significant difference in efficacy”. Further, the “Tender points, quality of sleep and other symptoms” value in the series on fibromyalgia patients [5] (10 mg/day) was “decline in the number of tender points and improvement in the quality of sleep, anxiety, fatigue, irritable bowel syndrome and stiffness”; in the series on fibromyalgia patients [5] (30 mg/day), “decline in the number of tender points and improvement in the quality of sleep, anxiety, fatigue, irritable bowel syndrome and stiffness”. Further, the Response to treatment result in the series on fibromyalgia patients [6] is “responded “favorably””.
Take `CNCCC=C1c2ccccc2CCc2ccccc21` [nortriptyline]: in series [1] (fibromyalgia patient not helped by cyclobenzaprine 2.5 mg, dose not given), the “Response to trial of nortriptyline” value is listed as “did well”.
